According to ChEMBL document CHEMBL5247659, “Design, Structure-Activity Relationships, and In Vivo Evaluation of Potent and Brain-Penetrant Imidazo[1,2-b]pyridazines as Glycogen Synthase Kinase-3β (GSK-3β) Inhibitors” (J Med Chem, 2023):
In brackets after ≈: the same amount, converted by molar mass.

How the values were obtained:
[1] = Oral bioavailability in 8 hr fasted C57BL6 mouse at 10 mg/kg; format: ADME, organism-based; settings: in vivo
[2] = Ratio of drug level in brain to plasma of triple transgenic C57BL6 alzheimer disease mouse at 30 mg/kg, po measured after 5 hrs; format: ADME, organism-based; settings: read-out: BPR
[3] = target: Tyrosine-protein kinase ITK/TSK (Homo sapiens, UniProt Q08881); assay: Inhibition of ITK (unknown origin)
Tyrosine-protein kinase ITK/TSK, sequence (Q08881 whole entry): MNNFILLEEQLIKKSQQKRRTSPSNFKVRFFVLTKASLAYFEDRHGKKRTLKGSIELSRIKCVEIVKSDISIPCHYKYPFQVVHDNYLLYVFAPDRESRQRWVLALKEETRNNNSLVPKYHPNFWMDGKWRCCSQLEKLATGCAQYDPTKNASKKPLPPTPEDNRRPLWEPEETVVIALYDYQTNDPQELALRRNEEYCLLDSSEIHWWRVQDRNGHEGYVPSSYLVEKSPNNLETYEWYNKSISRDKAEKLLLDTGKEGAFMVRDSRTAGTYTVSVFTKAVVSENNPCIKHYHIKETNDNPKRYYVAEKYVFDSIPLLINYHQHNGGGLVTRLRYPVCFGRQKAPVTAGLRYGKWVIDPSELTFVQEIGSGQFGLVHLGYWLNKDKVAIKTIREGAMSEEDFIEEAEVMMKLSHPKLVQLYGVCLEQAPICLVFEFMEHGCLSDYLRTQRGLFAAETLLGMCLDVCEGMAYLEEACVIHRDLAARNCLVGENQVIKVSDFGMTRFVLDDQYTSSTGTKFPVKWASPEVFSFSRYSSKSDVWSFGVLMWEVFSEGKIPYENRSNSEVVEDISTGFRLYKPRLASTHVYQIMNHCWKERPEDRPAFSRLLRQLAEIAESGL

[4] = target: Glycogen synthase kinase-3 alpha (Homo sapiens, UniProt P49840); assay: Inhibition of full length GST-tagged human recombinant GSK3-alpha using FL-KRREILSRRP[ps]ERYR-NH2 as substrate incubated for 20 hrs
[5] = target: Tyrosine-protein kinase Lck (Homo sapiens, UniProt P06239); assay: Inhibition of LCK (unknown origin)
[6] = Metabolic stability in mouse liver microsomes assessed as parent compound remaining at 0.5 uM incubated for 10 mins by LC-MS/MS analysis; format: ADME, Microsome; settings: read-out: Stability
[7] = target: P-glycoprotein (ABCB1) (Homo sapiens, UniProt P08183); assay: Substrate activity at P-glycoprotein in human Caco-2 cells assessed as efflux ratio of permeability across basolateral to apical side over apical to basolateral side at 3 uM incubated for 2 hrs by LC-MS/MS analysis; format: ADME, cell-based
[8] = target: Ribosomal protein S6 kinase alpha-1 (Homo sapiens, UniProt Q15418); assay: Inhibition of RSK1 (unknown origin)
Ribosomal protein S6 kinase alpha-1, sequence (Q15418 whole entry): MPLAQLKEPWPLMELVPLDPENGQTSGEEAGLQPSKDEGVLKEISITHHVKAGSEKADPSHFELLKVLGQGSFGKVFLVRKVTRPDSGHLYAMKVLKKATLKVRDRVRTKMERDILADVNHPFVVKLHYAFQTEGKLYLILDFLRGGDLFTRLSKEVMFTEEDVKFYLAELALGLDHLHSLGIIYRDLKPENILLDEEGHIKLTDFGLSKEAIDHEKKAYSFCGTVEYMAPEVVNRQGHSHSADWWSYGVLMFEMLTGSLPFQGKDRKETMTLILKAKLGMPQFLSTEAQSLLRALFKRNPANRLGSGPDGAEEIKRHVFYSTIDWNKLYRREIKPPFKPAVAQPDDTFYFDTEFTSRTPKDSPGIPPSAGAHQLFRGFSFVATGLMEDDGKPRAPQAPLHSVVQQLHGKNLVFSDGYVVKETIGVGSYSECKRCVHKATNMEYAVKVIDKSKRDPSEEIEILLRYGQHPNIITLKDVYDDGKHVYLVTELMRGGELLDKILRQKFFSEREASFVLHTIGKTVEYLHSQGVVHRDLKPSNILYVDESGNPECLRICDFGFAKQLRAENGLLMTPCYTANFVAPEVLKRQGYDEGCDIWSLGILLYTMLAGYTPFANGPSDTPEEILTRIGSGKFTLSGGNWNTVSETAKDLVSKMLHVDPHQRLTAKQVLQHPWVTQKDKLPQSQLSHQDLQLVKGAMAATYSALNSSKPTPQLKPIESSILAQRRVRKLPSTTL

[9] = target: Tyrosine-protein kinase JAK1 (Homo sapiens, UniProt P23458); assay: Inhibition of JAK1 (unknown origin)
Tyrosine-protein kinase JAK1, sequence (P23458 whole entry): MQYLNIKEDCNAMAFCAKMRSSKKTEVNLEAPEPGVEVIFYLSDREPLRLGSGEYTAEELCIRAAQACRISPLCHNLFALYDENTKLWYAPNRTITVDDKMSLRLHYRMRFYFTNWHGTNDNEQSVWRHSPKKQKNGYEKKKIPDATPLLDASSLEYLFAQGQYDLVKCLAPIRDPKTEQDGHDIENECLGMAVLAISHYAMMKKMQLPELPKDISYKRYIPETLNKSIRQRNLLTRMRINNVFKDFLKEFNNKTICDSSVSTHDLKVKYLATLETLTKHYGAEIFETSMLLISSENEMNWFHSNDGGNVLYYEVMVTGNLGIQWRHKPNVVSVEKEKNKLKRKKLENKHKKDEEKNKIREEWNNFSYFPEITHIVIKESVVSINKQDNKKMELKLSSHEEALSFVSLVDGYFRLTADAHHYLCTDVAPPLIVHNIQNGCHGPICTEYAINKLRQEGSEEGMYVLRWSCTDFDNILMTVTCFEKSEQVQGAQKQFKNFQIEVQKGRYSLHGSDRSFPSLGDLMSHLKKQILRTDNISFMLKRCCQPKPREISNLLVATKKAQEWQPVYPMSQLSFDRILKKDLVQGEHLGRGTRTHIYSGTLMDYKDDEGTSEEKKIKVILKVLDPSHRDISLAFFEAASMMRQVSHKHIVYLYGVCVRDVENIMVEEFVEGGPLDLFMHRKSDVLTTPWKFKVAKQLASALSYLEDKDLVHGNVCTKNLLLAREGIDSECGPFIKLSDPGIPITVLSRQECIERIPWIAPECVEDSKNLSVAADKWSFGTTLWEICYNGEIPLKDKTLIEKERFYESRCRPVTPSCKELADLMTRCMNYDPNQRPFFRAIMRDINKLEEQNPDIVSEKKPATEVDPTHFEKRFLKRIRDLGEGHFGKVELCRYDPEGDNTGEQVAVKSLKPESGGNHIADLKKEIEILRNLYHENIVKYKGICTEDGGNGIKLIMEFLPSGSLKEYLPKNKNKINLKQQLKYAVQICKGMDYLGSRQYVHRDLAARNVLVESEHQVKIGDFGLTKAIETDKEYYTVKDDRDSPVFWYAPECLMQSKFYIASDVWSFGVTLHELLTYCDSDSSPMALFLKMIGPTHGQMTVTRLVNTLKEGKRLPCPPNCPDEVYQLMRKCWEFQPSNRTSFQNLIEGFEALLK

[10] = Permeability across basolateral to apical side in human Caco-2 cells at 3 uM incubated for 2 hrs by LC-MS/MS analysis; format: ADME, cell-based; settings: read-out: permeability
[11] = Drug exposure in triple transgenic C57BL6 alzheimer disease mouse brain at 30 mg/kg, po measured after 5 hrs; format: ADME, organism-based; settings: read-out: Ct
[12] = target: Mast/stem cell growth factor receptor Kit (Homo sapiens, UniProt P10721); assay: Inhibition of cKIT (unknown origin)
[13] = Cmax in 8 hr fasted C57BL6 mouse at 10 mg/kg, po; format: ADME, organism-based; parameters: dose 10 mg/kg, route po; settings: in vivo
[14] = target: Mitogen-activated protein kinase 14 (Homo sapiens, UniProt Q16539); assay: Inhibition of p38alpha (unknown origin)
Mitogen-activated protein kinase 14, sequence (Q16539 whole entry): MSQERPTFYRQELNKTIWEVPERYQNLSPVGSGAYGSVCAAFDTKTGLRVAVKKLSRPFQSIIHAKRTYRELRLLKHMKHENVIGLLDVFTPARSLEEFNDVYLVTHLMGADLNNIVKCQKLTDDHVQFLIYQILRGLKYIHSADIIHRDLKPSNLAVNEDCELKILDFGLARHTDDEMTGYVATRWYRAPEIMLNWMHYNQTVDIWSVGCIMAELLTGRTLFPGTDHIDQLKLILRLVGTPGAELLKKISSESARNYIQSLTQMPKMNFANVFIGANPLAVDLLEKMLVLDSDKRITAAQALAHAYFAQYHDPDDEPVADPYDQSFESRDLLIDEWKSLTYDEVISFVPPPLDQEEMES

[15] = Permeability of compound at pH 7.4 incubated for 4 hrs by PAMPA assay; format: ADME; settings: read-out: permeability
[16] = target: Tyrosine-protein kinase SYK (Homo sapiens, UniProt P43405); assay: Inhibition of SYK (unknown origin)
[17] = target: Casein kinase II subunit alpha (Homo sapiens, UniProt P68400); assay: Inhibition of CK2A1 (unknown origin)
[18] = Clearance in 8 hr fasted C57BL6 mouse at 2 mg/kg, iv; format: ADME, organism-based; settings: in vivo
[19] = target: Tyrosine-protein kinase Lyn (Homo sapiens, UniProt P07948); assay: Inhibition of LynA (unknown origin)
[20] = target: Cyclin-dependent kinase 5 (Homo sapiens, UniProt Q00535); assay: Inhibition of CDK5 (unknown origin)
Cyclin-dependent kinase 5, sequence (Q00535 whole entry): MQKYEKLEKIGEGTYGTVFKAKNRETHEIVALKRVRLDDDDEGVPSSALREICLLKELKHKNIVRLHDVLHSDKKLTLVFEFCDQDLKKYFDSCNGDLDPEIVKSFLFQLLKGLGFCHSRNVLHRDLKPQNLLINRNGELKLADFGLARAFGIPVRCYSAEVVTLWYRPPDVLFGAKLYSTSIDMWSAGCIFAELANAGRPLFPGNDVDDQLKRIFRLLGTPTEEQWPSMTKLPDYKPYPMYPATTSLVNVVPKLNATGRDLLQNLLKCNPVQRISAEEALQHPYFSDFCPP

[21] = MRT in 8 hr fasted C57BL6 mouse at 2 mg/kg, iv; format: ADME, organism-based; settings: in vivo
[22] = Aqueous solubility of compound in potassium phosphate buffer at pH 7.4 at 1 mg/ml measured after 18 to 24 hrs by HPLC-UV based analysis; format: physicochemical; settings: time 18-24 hrs
[23] = target: Non-receptor tyrosine-protein kinase TYK2 (Homo sapiens, UniProt P29597); assay: Inhibition of TYK2 (unknown origin)
[24] = Solubility of compound in fasted state simulated intestinal fluid of pH 6.5 at 1 mg/ml measured after 18 to 24 hrs by HPLC-UV based analysis; format: ADME; settings: time 18-24 hrs
[25] = target: Tyrosine-protein kinase BTK (Homo sapiens, UniProt Q06187); assay: Inhibition of BTK (unknown origin)
[26] = target: Serine/threonine-protein kinase pim-1 (Homo sapiens, UniProt P11309); assay: Inhibition of PIM1 (unknown origin)
[27] = target: Interleukin-1 receptor-associated kinase 4 (Homo sapiens, UniProt Q9NWZ3); assay: Inhibition of IRAK4 (unknown origin)
[28] = target: Cyclin-dependent kinase 2 (Homo sapiens, UniProt P24941); assay: Inhibition of CDK2 (unknown origin)
[29] = Permeability of compound at pH 5.5 incubated for 4 hrs by PAMPA assay; format: ADME; settings: read-out: permeability
[30] = Plasma protein binding in human assessed as unbound fraction at 10 uM measured for 5 hrs by equilibrium dialysis based LC-MS/MS analysis; format: ADME, cell-free
[31] = Plasma protein binding in mouse assessed as unbound fraction at 10 uM measured for 5 hrs by equilibrium dialysis based LC-MS/MS analysis; format: ADME, cell-free
[32] = Aqueous solubility of compound in potassium phosphate buffer at pH 1 at 1 mg/ml measured after 18 to 24 hrs by HPLC-UV based analysis; format: physicochemical; settings: time 18-24 hrs
[33] = target: Aurora kinase B (Homo sapiens, UniProt Q96GD4); assay: Inhibition of Aurora B (unknown origin)
[34] = target: Tyrosine-protein kinase TXK (Homo sapiens, UniProt P42681); assay: Inhibition of TXK (unknown origin)
Tyrosine-protein kinase TXK, sequence (P42681 whole entry): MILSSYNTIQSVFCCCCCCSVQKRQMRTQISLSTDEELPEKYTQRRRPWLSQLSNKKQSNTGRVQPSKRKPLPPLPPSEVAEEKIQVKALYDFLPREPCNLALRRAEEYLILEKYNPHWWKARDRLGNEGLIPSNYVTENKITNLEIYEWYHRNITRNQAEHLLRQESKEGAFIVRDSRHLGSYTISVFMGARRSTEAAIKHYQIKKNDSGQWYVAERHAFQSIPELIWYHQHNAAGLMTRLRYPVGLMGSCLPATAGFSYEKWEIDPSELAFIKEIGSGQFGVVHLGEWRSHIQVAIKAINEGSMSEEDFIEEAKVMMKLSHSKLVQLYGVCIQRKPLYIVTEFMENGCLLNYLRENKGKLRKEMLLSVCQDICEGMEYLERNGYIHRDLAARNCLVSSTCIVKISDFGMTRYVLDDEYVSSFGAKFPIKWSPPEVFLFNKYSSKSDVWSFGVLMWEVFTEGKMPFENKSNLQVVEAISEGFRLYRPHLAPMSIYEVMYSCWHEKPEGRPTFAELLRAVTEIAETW

[35] = target: Platelet-derived growth factor receptor beta (Homo sapiens, UniProt P09619); assay: Inhibition of PDGFRbeta (unknown origin)
[36] = Unbound fraction in triple transgenic C57BL6 alzheimer disease model mouse brain homogenate at 30 mg/kg, po measured after 5 hrs; format: ADME, organism-based
[37] = target: Interleukin-1 receptor-associated kinase 1 (Homo sapiens, UniProt P51617); assay: Inhibition of IRAK1 (unknown origin)
[38] = Half life in 8 hr fasted C57BL6 mouse at 2 mg/kg, iv; format: ADME, organism-based; settings: in vivo
[39] = target: Protein kinase C theta type (Homo sapiens, UniProt Q04759); assay: Inhibition of PKCtheta (unknown origin)
Protein kinase C theta type, sequence (Q04759 whole entry): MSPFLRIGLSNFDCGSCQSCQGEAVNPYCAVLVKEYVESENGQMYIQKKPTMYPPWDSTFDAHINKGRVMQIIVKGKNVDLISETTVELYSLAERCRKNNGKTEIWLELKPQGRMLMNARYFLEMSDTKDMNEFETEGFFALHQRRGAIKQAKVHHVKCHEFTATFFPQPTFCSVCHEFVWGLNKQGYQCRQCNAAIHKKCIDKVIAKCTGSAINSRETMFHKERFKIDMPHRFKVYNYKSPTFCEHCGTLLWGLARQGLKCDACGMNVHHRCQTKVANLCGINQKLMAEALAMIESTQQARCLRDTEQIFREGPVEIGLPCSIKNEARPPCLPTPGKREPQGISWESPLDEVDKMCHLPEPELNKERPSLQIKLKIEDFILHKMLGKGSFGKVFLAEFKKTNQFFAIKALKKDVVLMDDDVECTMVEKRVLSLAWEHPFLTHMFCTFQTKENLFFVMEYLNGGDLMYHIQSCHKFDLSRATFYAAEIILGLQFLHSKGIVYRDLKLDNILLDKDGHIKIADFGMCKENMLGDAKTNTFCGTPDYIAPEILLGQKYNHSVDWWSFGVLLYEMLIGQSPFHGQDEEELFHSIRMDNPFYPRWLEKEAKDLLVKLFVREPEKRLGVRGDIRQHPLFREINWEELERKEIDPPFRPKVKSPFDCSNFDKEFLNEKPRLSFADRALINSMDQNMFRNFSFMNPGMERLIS

[40] = target: Cytoplasmic tyrosine-protein kinase BMX (Homo sapiens, UniProt P51813); assay: Inhibition of BMX (unknown origin)
[41] = target: AP2-associated protein kinase 1 (Homo sapiens, UniProt Q2M2I8); assay: Inhibition of AAK1 (unknown origin)
[42] = Metabolic stability in human liver microsomes assessed as parent compound remaining at 0.5 uM incubated for 10 mins by LC-MS/MS analysis; format: ADME, Microsome; settings: read-out: Stability
[43] = Unbound brain-to-plasma concentration ratio in triple transgenic C57BL6 alzheimer disease mouse model at 30 mg/kg, po measured after 5 hrs; format: ADME, organism-based; settings: read-out: K(p,uu,brain)
[44] = AUC tot in 8 hr fasted C57BL6 mouse at 10 mg/kg, po; format: ADME, organism-based; parameters: dose 10 mg/kg, route po; settings: in vivo
[45] = Volume of distribution at steady state in 8 hr fasted C57BL6 mouse at 2 mg/kg, iv; format: ADME, organism-based; settings: in vivo, read-out: Vdss
[46] = Drug exposure in triple transgenic C57BL6 alzheimer disease mouse plasma at 30 mg/kg, po measured after 5 hrs; format: ADME, organism-based
[47] = target: Insulin-like growth factor 1 receptor (Homo sapiens, UniProt P08069); assay: Inhibition of IGF1R (unknown origin)
[48] = target: MAP kinase-activated protein kinase 2 (Homo sapiens, UniProt P49137); assay: Inhibition of MK2 (unknown origin)
[49] = Permeability across apical to basolateral side in human Caco-2 cells at 3 uM incubated for 2 hrs by LC-MS/MS analysis; format: ADME, cell-based; settings: read-out: permeability
[50] = system: Mus musculus; assay: Antialzheimer activity against triple transgenic C57BL6 mouse model assessed as reduction in tau phosphorylation at S396 at 30 mg/kg, po measured 5 hrs post dose by ELISA relative to control; format: functional; parameters: scale not given: the % may be the effect or the level left
[51] = target: Casein kinase II subunit alpha' (Homo sapiens, UniProt P19784); assay: Inhibition of CK2A2 (unknown origin)
[52] = target: Tyrosine-protein kinase JAK2 (Homo sapiens, UniProt O60674); assay: Inhibition of JAK2 (unknown origin)
[53] = Inhibition of N-terminal 6-His tagged human recombinant GSK3-beta H355L mutant using FL-KRREILSRRP[ps]ERYR-NH2 as substrate incubated for 20 hrs
[54] = Inhibition of tau 4R1N phosphorylation (unknown origin) at S396 residue transfected in human U2OS cells coexpressing GFP-tagged beta catenin incubated overnight by high content imaging assay
[55] = target: Aurora kinase A (Mus musculus, UniProt P97477); assay: Inhibition of mouse AURA
Aurora kinase A, sequence (P97477 whole entry): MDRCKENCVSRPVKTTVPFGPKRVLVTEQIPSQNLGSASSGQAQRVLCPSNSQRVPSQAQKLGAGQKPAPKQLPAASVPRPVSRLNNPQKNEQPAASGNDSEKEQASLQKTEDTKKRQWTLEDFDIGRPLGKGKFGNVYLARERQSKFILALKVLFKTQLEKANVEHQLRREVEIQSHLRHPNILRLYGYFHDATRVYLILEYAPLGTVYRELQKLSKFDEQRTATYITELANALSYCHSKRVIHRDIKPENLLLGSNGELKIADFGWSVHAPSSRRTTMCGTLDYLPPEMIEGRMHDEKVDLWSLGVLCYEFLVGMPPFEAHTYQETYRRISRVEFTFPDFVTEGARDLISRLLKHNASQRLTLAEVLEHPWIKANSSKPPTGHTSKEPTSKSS

[56] = Solubility of compound in fed state simulated intestinal fluid of pH 5 at 1 mg/ml measured after 18 to 24 hrs by HPLC-UV based analysis; format: ADME; settings: time 18-24 hrs

bioavailability [1]: 64%
Kp at 5 h [2]: 0.34
IC50 [3]: > 2000 nM
IC50 [4]: 0.35 nM
IC50 [5]: > 2000 nM
remaining at 10 min, 0.5 µM [6]: 7%
efflux ratio at 2 h, 3 µM [7]: < 1
IC50 [8]: > 50 µM
IC50 [9]: > 2000 nM
Papp B→A at 2 h, 3 µM [10]: 7.1 ×10⁻⁶ cm/s
concentration at 5 h [11]: 1300 nM
IC50 [12]: > 50 µM
Cmax [13]: 7.8 µM
IC50 [14]: > 2000 nM
Papp at 4 h [15]: 80.6 ×10⁻⁶ cm/s
IC50 [16]: > 2000 nM
IC50 [17]: > 2000 nM
clearance [18]: 3.8 mL/min/kg
IC50 [19]: > 2000 nM
IC50 [20]: 6.4 µM
MRT [21]: 4.8 h
solubility [22]: 14 µg/mL (≈ 33.8 µM)
IC50 [23]: > 2000 nM
solubility [24]: 21 µg/mL (≈ 50.7 µM)
IC50 [25]: > 2000 nM
IC50 [26]: 380 nM
IC50 [27]: > 2000 nM
IC50 [28]: 1400 nM
Papp at 4 h [29]: 100 ×10⁻⁶ cm/s
fraction unbound at 5 h, 10 µM [30]: 0.008
fraction unbound at 5 h, 10 µM [31]: 0.009
solubility [32]: 1220 µg/mL (≈ 2940 µM)
IC50 [33]: > 2000 nM
IC50 [34]: > 2000 nM
IC50 [35]: > 50 µM
fraction unbound at 5 h [36]: 0.009
IC50 [37]: > 2000 nM
half-life [38]: 312 min
IC50 [39]: 360 nM
IC50 [40]: > 2000 nM
IC50 [41]: 200 nM
remaining at 10 min, 0.5 µM [42]: 17%
Kp uu at 5 h [43]: 0.34
AUC [44]: 68.3 µM·h
Vd [45]: 1.1 L/kg
concentration at 5 h [46]: 3.8 µM
IC50 [47]: > 50 µM
IC50 [48]: > 50 µM
Papp A→B at 2 h, 3 µM [49]: 13.8 ×10⁻⁶ cm/s
IC50 [51]: > 2000 nM
IC50 [52]: > 2000 nM
IC50 [53]: 0.73 nM
IC50 [54]: 58 nM
IC50 [55]: > 50 µM
solubility [56]: 788 µg/mL (≈ 1900 µM)
SMILES: CC1CN(c2ccncc2NC(=O)c2ccnn3cc(-c4ccccc4)nc23)CCO1 (racemic)
Activity [50]: 52%
